Like-named read-outs stand apart in the source and are kept apart here.
What was measured:
SFRP-1 [1] = target: T1, SFRP-1 (Homo sapiens, UniProt Q8N474); test: Fluorescence polarization binding assay (competitive displacement of a probe compound from SFRP-1); details: fluorescence anisotropy, 45 nM SFRP-1, 20 nM probe;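 note: test compound competes with a fluorescent probe held by SFRP-1, seen as a drop in probe anisotropy after incubation in darkness, with anisotropy as function of rising compound dose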
T1 sequence (Q8N474 32-314): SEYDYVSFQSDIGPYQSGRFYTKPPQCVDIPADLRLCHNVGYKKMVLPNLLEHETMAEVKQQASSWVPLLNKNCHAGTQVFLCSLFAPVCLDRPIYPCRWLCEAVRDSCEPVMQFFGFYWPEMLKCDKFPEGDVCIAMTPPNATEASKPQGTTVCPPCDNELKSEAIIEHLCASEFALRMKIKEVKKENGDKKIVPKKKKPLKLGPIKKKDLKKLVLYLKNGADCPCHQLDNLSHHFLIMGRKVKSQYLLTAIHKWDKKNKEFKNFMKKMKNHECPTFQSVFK

SFRP-1 [2] = target: T1, SFRP-1; test: Cell-based assay for in vitro measurement of SFRP-1/SARP2 antagonist activity (U2OS cells co-transfected with 16x TCF-tk-Luciferase reporter, Wnt and hSFRP-1); details: U2OS; for fold induction at 10 µM: read-out: Fold Induction with SFRP-1, U2OS cells, single dose 10 μM, luciferase reporter, fold induction over SFRP-1 control;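 for all read-outs here: U2OS cells co-transfected with a TCF-tk luciferase reporter, a Wnt vector, hSFRP-1 or empty vector and CMV-βgal, luciferase luminescence read in cell lysates alongside βgal activity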
[3] = read-out: Fold Induction with SFRP-1, Conc 15 μM, with SFRP-1, fold induction over SFRP-1 control, single dose
[4] = read-out: Fold Induction without SFRP-1, Conc 15 μM, without SFRP-1, single dose
[5] = read-out: Fold Induction with SFRP-1, Conc 30 μM, with SFRP-1, fold induction over SFRP-1 control, single dose
[6] = read-out: Fold Induction without SFRP-1, Conc 30 μM, without SFRP-1, single dose

Compound: CC(C)C(CO)NS(=O)(=O)c1cc(S(=O)(=O)c2ccccc2)ccc1C(F)(F)F (centres unmarked) [Example 769, N-[1-(hydroxymethyl)-2-methylpropyl]-5-(phenylsulfonyl)-2-(trifluoromethyl)benzenesulfonamide]
- IC50 (SFRP-1 [1]): 13 µM

Compound: CN(CCNS(=O)(=O)c1cc(S(=O)(=O)c2ccccc2)ccc1C(F)(F)F)CCC(=O)O [Example 982, N-methyl-N-[2-({[5-(phenylsulfonyl)-2-(trifluoromethyl)phenyl]sulfonyl}amino)ethyl]-β-alanine]
- IC50 (SFRP-1 [1]): 8 µM

Compound: O=S(=O)(NCCc1ccccc1F)c1cccc(S(=O)(=O)c2ccccc2)c1 [Example 82, N-[2-(2-fluorophenyl)ethyl]-3-(phenylsulfonyl)benzenesulfonamide]
- fold induction at 15 µM (SFRP-1 [2]; [3]): 1.2
- fold induction at 15 µM (SFRP-1 [2]; [4]): 1

Compound: O=S(=O)(NCCc1ccccn1)c1cc(S(=O)(=O)c2ccccc2)ccc1C1CCCCC1 [Example 459, 2-cyclohexyl-5-(phenylsulfonyl)-N-(2-pyridin-2-ylethyl)benzenesulfonamide]
- fold induction at 15 µM (SFRP-1 [2]; [3]): 1.6
- fold induction at 15 µM (SFRP-1 [2]; [4]): 0.9

Compound: O=S(=O)(NCc1ccc(Br)cc1)c1cc(S(=O)(=O)c2ccccc2)ccc1C(F)(F)F [Example 964, N-(4-bromobenzyl)-5-(phenylsulfonyl)-2-(trifluoromethyl)benzenesulfonamide]
- fold induction at 10 µM (SFRP-1 [2]): 1.2

Compound: Cc1ccc(S(=O)(=O)c2ccccc2)cc1S(=O)(=O)NC1CCN(C(=O)Cc2ccccc2)CC1 [Example 470, 2-methyl-N-[1-(phenylacetyl)piperidin-4-yl]-5-(phenylsulfonyl)benzenesulfonamide]
- fold induction at 15 µM (SFRP-1 [2]; [3]): 1.6
- fold induction at 15 µM (SFRP-1 [2]; [4]): 1.1

Compound: Cc1ccc(S(=O)(=O)c2ccccc2)cc1S(=O)(=O)N1CCN(CCN2CCCC2)CC1 [Example 282, 1-{[2-methyl-5-(phenylsulfonyl)phenyl]sulfonyl}-4-(2-pyrrolidin-1-ylethyl)piperazine]
- fold induction at 15 µM (SFRP-1 [2]; [3]): 2.4
- fold induction at 15 µM (SFRP-1 [2]; [4]): 1.6

Compound: CCc1ccc(S(=O)(=O)c2ccc(F)cc2)cc1S(=O)(=O)NCC1CCOCC1 [Example 384, 2-ethyl-5-[(4-fluorophenyl)sulfonyl]-N-(tetrahydro-2H-pyran-4-ylmethyl)benzenesulfonamide]
- fold induction at 15 µM (SFRP-1 [2]; [3]): 2.6
- fold induction at 15 µM (SFRP-1 [2]; [4]): 0.8

Compound: Cc1ccc(S(=O)(=O)c2ccccc2)cc1S(=O)(=O)NCCN1CCCCC1 [Example 209, 2-methyl-5-(phenylsulfonyl)-N-(2-piperidin-1-ylethyl)benzenesulfonamide]
- fold induction at 15 µM (SFRP-1 [2]; [3]): 2.2
- fold induction at 15 µM (SFRP-1 [2]; [4]): 1.3

Compound: CC(C)(C)c1ccc(S(=O)(=O)N2CCC(NS(=O)(=O)c3cc(S(=O)(=O)c4ccccc4)ccc3C(F)(F)F)CC2)cc1 [Example 748, N-{1-[(4-tert-butylphenyl)sulfonyl]piperidin-4-yl}-5-(phenylsulfonyl)-2-(trifluoromethyl)benzenesulfonamide]
- fold induction at 10 µM (SFRP-1 [2]): 2.8

Compound: CC(C)(C)OC(=O)NC1CCN(S(=O)(=O)c2cc(S(=O)(=O)c3ccccc3)ccc2Cl)CC1 [Example 639, tert-butyl(1-{[2-chloro-5-(phenylsulfonyl)phenyl]sulfonyl}piperidin-4-yl)carbamate]
- fold induction at 15 µM (SFRP-1 [2]; read-out: Fold Induction with SFRP-1, Conc 15 μM, single dose, luciferase reporter, fold induction over SFRP-1 control, cells with SFRP-1): 0.9
- fold induction at 15 µM (SFRP-1 [2]; read-out: Fold Induction without SFRP-1, Conc 15 μM, single dose, luciferase reporter, cells without SFRP-1 (specificity control)): 1

Compound: CNc1ccc(S(=O)(=O)c2ccc(C(C)C)c(S(=O)(=O)NCCn3ccnc3)c2)cc1 [Example 451, N-[2-(1H-imidazol-1-yl)ethyl]-2-isopropyl-5-{[4-(methylamino)phenyl]sulfonyl)benzenesulfonamide]
- fold induction at 15 µM (SFRP-1 [2]; [3]): 3.7
- fold induction at 15 µM (SFRP-1 [2]; [4]): 1.1

Compound: CCc1ccc(S(=O)(=O)c2ccccc2)cc1S(=O)(=O)NCCc1ccccc1F [Example 147, 2-ethyl-N-[2-(2-fluorophenyl)ethyl]-5-(phenylsulfonyl)benzenesulfonamide]
- fold induction at 15 µM (SFRP-1 [2]; [3]): 3.2
- fold induction at 15 µM (SFRP-1 [2]; [4]): 1

Compound: O=S(=O)(NCCc1cccc(F)c1)c1cccc(S(=O)(=O)c2ccccc2)c1 [Example 81, N-[2-(3-fluorophenyl)ethyl]-3-(phenylsulfonyl)benzenesulfonamide]
- fold induction at 15 µM (SFRP-1 [2]; [3]): 1
- fold induction at 15 µM (SFRP-1 [2]; [4]): 0.9

Compound: CC(C)c1ccc(S(=O)(=O)c2ccc(F)cc2)cc1S(=O)(=O)NC(CO)C(C)C (centres unmarked) [Example 734, 5-[(4-fluorophenyl)sulfonyl]-N-[1-(hydroxymethyl)-2-methylpropyl]-2-isopropylbenzenesulfonamide]
- fold induction at 10 µM (SFRP-1 [2]): 1.6

Compound: CN(C)CCNS(=O)(=O)c1cccc(S(=O)(=O)c2ccccc2)c1 [Example 194, N-[2-(dimethylamino)ethyl]-3-(phenylsulfonyl)benzenesulfonamide]
- fold induction at 30 µM (SFRP-1 [2]; [5]): 1.3
- fold induction at 30 µM (SFRP-1 [2]; [6]): 1.2

Compound: Cc1ccc(S(=O)(=O)c2ccccc2)cc1S(=O)(=O)NCCN1CCOCC1 [Example 211, 2-methyl-N-(2-morpholin-4-ylethyl)-5-(phenylsulfonyl)benzenesulfonamide]
- fold induction at 15 µM (SFRP-1 [2]; [3]): 2.3
- fold induction at 15 µM (SFRP-1 [2]; [4]): 0.7

Compound: COc1ccc(CCNS(=O)(=O)c2cc(S(=O)(=O)c3ccc(Cl)cc3)ccc2C)cc1OC [Example 92, 5-[(4-chlorophenyl)sulfonyl]-N-[2-(3,4-dimethoxyphenyl)ethyl]-2-methylbenzenesulfonamide]
- fold induction at 30 µM (SFRP-1 [2]; [5]): 1
- fold induction at 30 µM (SFRP-1 [2]; [6]): 0.4

Compound: Cc1ccc(S(=O)(=O)c2ccccc2)cc1S(=O)(=O)NCCCN(C)C [Example 216, N-[3-(dimethylamino)propyl]-2-methyl-5-(phenylsulfonyl)benzenesulfonamide]
- fold induction at 15 µM (SFRP-1 [2]; [3]): 3.6
- fold induction at 15 µM (SFRP-1 [2]; [4]): 1.3

Compound: N#CCCNS(=O)(=O)c1cccc(S(=O)(=O)c2ccccc2)c1 [Example 183, N-(2-cyanoethyl)-3-(phenylsulfonyl)benzenesulfonamide]
- fold induction at 30 µM (SFRP-1 [2]; [5]): 1.3
- fold induction at 30 µM (SFRP-1 [2]; [6]): 1

Compound: CC(C)c1ccc(S(=O)(=O)c2ccc(F)cc2)cc1S(=O)(=O)NC[C@@H](C)c1ccccc1 [Example 444, 5-[(4-fluorophenyl)sulfonyl]-2-isopropyl-N-[(2S)-2-phenylpropyl]benzenesulfonamide]
- fold induction at 15 µM (SFRP-1 [2]; [3]): 1.4
- fold induction at 15 µM (SFRP-1 [2]; [4]): 1.1

Compound: Cc1ccc(S(=O)(=O)c2ccc(NCc3ccc(C(F)(F)F)cc3)cc2)cc1S(=O)(=O)NCCCn1ccnc1 [Example 374, N-[3-(1H-imidazol-1-yl)propyl]-2-methyl-5-[(4-{[4-(trifluoromethyl)benzyl]amino}phenyl)sulfonyl]benzenesulfonamide]
- fold induction at 15 µM (SFRP-1 [2]; [3]): 1.5
- fold induction at 15 µM (SFRP-1 [2]; [4]): 0.9

Compound: COCC(=O)N1CCC(NS(=O)(=O)c2cc(S(=O)(=O)c3ccccc3)ccc2C)CC1 [Example 469, N-[1-(methoxyacetyl)piperidin-4-yl]-2-methyl-5-(phenylsulfonyl)benzenesulfonamide]
- fold induction at 15 µM (SFRP-1 [2]; [3]): 3.6
- fold induction at 15 µM (SFRP-1 [2]; [4]): 1.1

Compound: Cc1ccc(S(=O)(=O)c2ccccc2)cc1S(=O)(=O)NCCC(=O)N1CCCC1 [Example 665, 2-methyl-N-(3-oxo-3-pyrrolidin-1-ylpropyl)-5-(phenylsulfonyl)benzenesulfonamide]
- fold induction at 10 µM (SFRP-1 [2]): 1.3

Compound: Cc1ccc(S(=O)(=O)c2ccc(F)cc2)cc1S(=O)(=O)NCCn1ccnc1 [Example 307, 5-[(4-fluorophenyl)sulfonyl]-N-[2-(1H-imidazol-1-yl)ethyl]-2-methylbenzenesulfonamide]
- fold induction at 15 µM (SFRP-1 [2]; [3]): 2.5
- fold induction at 15 µM (SFRP-1 [2]; [4]): 0.9

From patent US20060276464A1, “Diarylsulfone sulfonamides and use thereof” (Wyeth, priority 2005, published 2006)
